Results published in patent US20230416247A1, “DRUG-LIKE MOLECULES AND METHODS FOR THE THERAPEUTIC TARGETING OF MICRORNA-21” (University of Washington, priority 2020, published 2023).
Entries after “also recorded” stand apart in the source; their conditions may differ.

Legend:
[1] = tested on: pre-miR-21 processing by Dicer-TRBP; experiment: Dicer/TRBP in vitro processing of pre-miR-21; format: biochemical, human; settings: for inhibition of Dicer processing: pre-miR-21 compared with pre-Let7
Method: In order to further assess the biochemical activity of our compounds, processing of pre-miR-21 and pre-Let7 by Dicer-TRBP in vitro was compared. FIGS. 9A and 9B show selective response in the rate of processing under early phase reaction conditions, before significant product builds up, for pre-miR21 compared to pre-Let7.
The results are specific to the initial rates (0.25-5 min) of the reaction. […] This is inevitable because Dicer binds the product tightly. This assay and method of inhibiting miR-21 synthesis is different than typical enzymatic assays. First, the small molecule is targeting the substrate of the enzymatic assay. High affinity compounds that change the structure of the substrate may reduce processing but might not inhibit processing completely. Rather, changes in the specificity constant (kcat/Km), are a better measure of small molecule inhibition than traditional Ki's.
Dicer/TRBP. The Dicer/TRBP enzyme complex was expressed and purified using published methods and stored at −80° C. in 20 μL aliquots until needed. Briefly, the gene encoding human full-length Dicer was inserted into a modified pFastBac1 vector (Invitrogen), which has an N-terminal glutathione-S-transferase (GST) tag. The GST fusion proteins were expressed in HiFive insect cells following standard procedures and isolated by glutathione affinity chromatography using buffer A (20 mM Tris-HCl pH 8.0, 150 mM NaCl, 2 mM DTT). After on-column cleavage by Tobacco Etch Virus (TEV) protease overnight, the proteins were eluted, concentrated and loaded onto Superdex 200 GL column equilibrated in buffer A. Sequences coding for human full-length TRBP2 were cloned into a modified pET28a vector with an N-terminal GB1 tag. The clones were transformed into Rosetta 2 cells and the transformants were grown in LB media at 37° C. until the cells reached a density corresponding to an OD reading of 0.8 at 600 nm. Protein expression was induced by addition of 0.2 mM IPTG at 18° C. for 20 hours. The cells were harvested, pelleted and resuspended in 20 mM Tris-HCl pH 8.0, 500 mM NaCl, mM imidazole, with 5 mM β-ME. […]

[2] = tested on: miR-16, miR-28, miR-182 in pancreatic (ASPC1) cells; experiment: qRT-PCR of miR-16, miR-28, miR-182 in ASPC1 cells; format: cell-based, human; settings: ASPC1, 24-72 hours post incubation, vs DMSO
Method: Levels of each microRNA were measured at different times post incubation (24-72 hours) by standard qRT-PCR, normalized to internal controls (U6 or U8 snRNA), in both gastric (AGC) and pancreatic (ASPC1) cell lines. Levels of the microRNA are generally the same, within experimental uncertainty, in the absence (DMSO) or presence of compound −0052 (30).
FIGS. 15A-15F show the levels of mature miR-16, miR-28, and miR-182 are not consistently affected by the compounds in both gastric (AGS) and pancreatic (ASPC1) cell lines, over multiple time scales (24-72 hours), relative to control where DMSO was added, but no compound.
Cell line maintenance. Using the Cancer Cell Line Encyclopedia (CCLE), in-house cancer cell lines were screened to identify cancer and tissue types with varying levels of miR-21 expression. Experiments were performed using the human-derived cell lines AGS (gastric cancer) and AsPC-1 (pancreatic cancer). […]
Quantitative real time PCR analysis. […] RNA concentration was assessed with the NanoDrop ND-1000 spectrophotometer (ThermoFisher Scientific). […] Expression of miR-21 was assessed utilizing the TaqMan microRNA assay (Applied Biosystems). […] All experiments were performed in triplicate, with all samples normalized to the internal controls and relative expression levels calculated using the 2^ΔΔCt method.

Compound	pre-miR-21 processing by DICER/TRBP ([1]; 2 μM compound vs no compound, initial rates)	inhibition of Dicer processing [1]	cellular levels of miR-16, miR-28, miR-182 [2]
O=c1[nH]c(Nc2ccc(N3CCNCC3)cn2)nc2cccnc12 [Compound 25]	processing activity is visibly reduced; also recorded: visibly reduced pre-miR-21 processing	specifically inhibit Dicer processing	
O=c1[nH]c(Nc2ccc(N3CCNCC3)cn2)nc2cnccc12 [Compound 30]		specifically inhibit Dicer processing	does not affect cellular levels
